The target of one assay is T1, human cathepsin F (Homo sapiens, UniProt Q9UBX1).
T1 sequence (Q9UBX1 271-484): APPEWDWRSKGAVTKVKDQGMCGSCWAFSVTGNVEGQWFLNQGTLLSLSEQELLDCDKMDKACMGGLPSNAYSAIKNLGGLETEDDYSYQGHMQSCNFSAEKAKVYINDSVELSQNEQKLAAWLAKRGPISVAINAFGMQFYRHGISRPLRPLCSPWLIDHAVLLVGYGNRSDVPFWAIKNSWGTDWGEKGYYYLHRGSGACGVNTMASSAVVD
As to the kind of experiment: Cathepsin F Assay. It counts as biochemical. Particulars: IP from dose response curve; Z-Phe-Arg-AMC substrate, pH 5.5; read-out: hCat F (IP (nM)). In outline:
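Human cathepsin F (10 nM) preincubated 15 min at room temperature with compounds in 50 mM MES pH 5.5, 2.5 mM EDTA, 2.5 mM DTT, 10% DMSO. Z-Phe-Arg-AMC (8 μM) added; AMC release read by fluorescence (Ex 360/Em 460 nm) over 20 min, inhibition fit to dose-response model.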

Another assay has as its target human cathepsin K (UniProt P43236, Y175D/V274L, species not given). Nature of the assay: Cathepsin K Assay. It counts as biochemical. Conditions: IP from dose response curve; Z-Leu-Arg-AMC substrate, pH 5.5; read-out: hrbCat K (IP (nM)).

`N#CC1(NC(=O)[C@@H]2CC(F)(F)CC[C@H]2c2nn(-c3ccc(F)cc3)cc2-c2ccc(N3CCS(=O)(=O)CC3)cc2)CC1` [Example 83, (1R,2R)-N-(1-cyanocyclopropyl)-2-(4-(4-(1,1-dioxidothiomorpholino)phen-yl)-1-(4-fluorophenyl)-1H-pyrazol-3-yl)-5,5-difluorocyclohexanecarbox-amide]: the IC50 on human cathepsin F was 28 nM; at human cathepsin K, 0.47 nM.

Consider `N#CC1(NC(=O)[C@H]2CC(F)(F)CC[C@@H]2c2nn(-c3ccc(F)cc3)cc2-c2ccc(N3CCS(=O)(=O)CC3)cc2)CC1` [Example 84, (1S,2S)-N-(1-cyanocyclopropyl)-2-(4-(4-(1,1-dioxidothiomorpholino)phen-yl)-1-(4-fluorophenyl)-1H-pyrazol-3-yl)-5,5-difluorocyclohexanecarbox-amide], for which the figures for the IC50 at human cathepsin F and at human cathepsin K were 1050 nM and 51.6 nM, respectively.

`N#CC1(NC(=O)[C@@H]2CCCC[C@H]2c2nn(-c3ccc(F)cc3)cc2-c2ccc(N3CCS(=O)(=O)CC3)cc2)CC1` [Example 85, (1R,2R)-N-(1-cyanocyclopropyl)-2-(4-(4-(1,1-dioxidothiomorpholino)phen-yl)-1-(4-fluorophenyl)-1H-pyrazol-3-yl)cyclohexanecarboxamide]: the results for the IC50 on human cathepsin F and on human cathepsin K were 352 nM and 0.69 nM, respectively.

In the case of `N#CC1(NC(=O)[C@@H]2CCCC[C@H]2c2nn(-c3cccc(F)c3)cc2-c2ccc(N3CCS(=O)(=O)CC3)cc2)CC1` [Example 86, (1R,2R)-N-(1-cyanocyclopropyl)-2-(4-(4-(1,1-dioxidothiomorpholino)phen-yl)-1-(3-fluorophenyl)-1H-pyrazol-3-yl)cyclohexanecarboxamide], the IC50 at human cathepsin F was 268 nM; on human cathepsin K, 0.33 nM.

With `COc1ccc(-n2cc(-c3ccc(N4CCS(=O)(=O)CC4)cc3)c([C@@H]3CCCC[C@H]3C(=O)NC3(C#N)CC3)n2)cc1` [Example 87, (1R,2R)-N-(1-cyanocyclopropyl)-2-(4-(4-(1,1-dioxidothiomorpholino)phen-yl)-1-(4-methoxyphenyl)-1H-pyrazol-3-yl)cyclohexanecarboxamide], the IC50 stood at 740 nM on human cathepsin F and 0.99 nM on human cathepsin K.

With `N#CC1(NC(=O)[C@@H]2CCCC[C@H]2c2nn(-c3ccc(F)cc3)cc2-c2ccc(C(=O)N3CCOCC3)cc2)CC1` [Example 88, (1R,2R)-N-(1-cyanocyclopropyl)-2-(1-(4-fluorophenyl)-4-(4-(morpholine-4-carbonyl)phenyl)-1H-pyrazol-3-yl)cyclohexanecarboxamide], the values for the IC50 at human cathepsin F and at human cathepsin K were 1010 nM and 6.9 nM, respectively.

For the compound `N#CC1(NC(=O)[C@@H]2CCCC[C@H]2c2nn(-c3ccc(F)cc3)cc2-c2ccc(C(=O)N3CCNC(=O)C3)cc2)CC1` [Example 89, (1R,2R)-N-(1-cyanocyclopropyl)-2-(1-(4-fluorophenyl)-4-(4-(3-oxopiperazine-1-carbonyl)phenyl)-1H-pyrazol-3-yl)cyclohexanecarboxamide], the figures for the IC50 on human cathepsin F and at human cathepsin K were 989 nM and 9.37 nM, respectively.

As for `N#CC1(NC(=O)[C@@H]2CCCC[C@H]2c2nn(-c3ccc(F)cc3)cc2-c2ccc(C(=O)N3CCC(O)CC3)cc2)CC1` [Example 90, (1R,2R)-N-(1-cyanocyclopropyl)-2-(1-(4-fluorophenyl)-4-(4-(4-hydroxypiperidine-1-carbonyl)phenyl)-1H-pyrazol-3-yl)cyclohexanecarboxamide], the IC50 on human cathepsin F stood at 1760 nM; at human cathepsin K, 8.01 nM.

In the case of `N#Cc1ccccc1-n1cc(-c2ccc(N3CCS(=O)(=O)CC3)cc2)c([C@@H]2CCCC[C@H]2C(=O)NC2(C#N)CC2)n1` [Example 91, (1R,2R)-N-(1-cyanocyclopropyl)-2-(1-(2-cyanophenyl)-4-(4-(1,1-dioxidothiomorpholino)phen-yl)-1H-pyrazol-3-yl)cyclohexanecarboxamide], the IC50 was determined as 1020 nM at human cathepsin F and 1.02 nM at human cathepsin K.

With `COc1ccccc1-n1cc(-c2ccc(N3CCS(=O)(=O)CC3)cc2)c([C@@H]2CCCC[C@H]2C(=O)NC2(C#N)CC2)n1` [Example 92, (1R,2R)-N-(1-cyanocyclopropyl)-2-(4-(4-(1,1-dioxidothiomorpholino)phen-yl)-1-(2-methoxyphenyl)-1H-pyrazol-3-yl)cyclohexanecarboxamide], the values for the IC50 at human cathepsin F and on human cathepsin K were 484 nM and 0.95 nM, respectively.

As for `CS(=O)(=O)N1CCN(C(=O)c2ccc(-c3cn(-c4ccc(F)cc4)nc3[C@@H]3CCCC[C@H]3C(=O)NC3(C#N)CC3)cc2)CC1` [Example 93, (1R,2R)-N-(1-cyanocyclopropyl)-2-(1-(4-fluorophenyl)-4-(4-(4-(methylsulfonyl)piperazine-1-carbonyl)phenyl)-1H-pyrazol-3-yl)cyclohexanecarboxamide], the IC50 at human cathepsin F turned out to be 2350 nM; at human cathepsin K, 5.02 nM.

With `CS(=O)(=O)C1CN(c2ccc(-c3cn(-c4ccc(F)cc4)nc3[C@@H]3CCCC[C@H]3C(=O)NC3(C#N)CC3)cc2)C1` [Example 94, (1R,2R)-N-(1-cyanocyclopropyl)-2-(1-(4-fluorophenyl)-4-(4-(3-(methylsulfonyl)azetidin-1-yl)phenyl)-1H-pyrazol-3-yl)cyclohexanecarboxamide], the results for the IC50 on human cathepsin F and at human cathepsin K were 2780 nM and 2.57 nM, respectively.

For `N#CC1(NC(=O)[C@@H]2CCCC[C@H]2c2nn(-c3ccc(Cl)cc3)cc2-c2ccc(N3CCS(=O)(=O)CC3)cc2)CC1` [Example 95, (1R,2R)-2-(1-(4-chlorophenyl)-4-(4-(1,1-dioxidothiomorpholino)phen-yl)-1H-pyrazol-3-yl)-N-(1-cyanocyclopropyl)cyclohex-anecarboxamide], the figures for the IC50 at human cathepsin F and on human cathepsin K were 402 nM and 0.73 nM, respectively.

For `CC(C)(O)c1cccc(-n2cc(-c3ccc(N4CCS(=O)(=O)CC4)cc3)c([C@@H]3CCCC[C@H]3C(=O)NC3(C#N)CC3)n2)c1` [Example 96, (1R,2R)-N-(1-cyanocyclopropyl)-2-(4-(4-(1,1-dioxidothiomorpholino)phen-yl)-1-(3-(2-hydroxypropan-2-yl)phenyl)-1H-pyrazol-3-yl)cyclohexanecarboxamide], the IC50 at human cathepsin F is 824 nM; at human cathepsin K, 1.27 nM.

For `CC(C)(O)c1ccc(-n2cc(-c3ccc(N4CCS(=O)(=O)CC4)cc3)c([C@@H]3CCCC[C@H]3C(=O)NC3(C#N)CC3)n2)cc1` [Example 97, (1R,2R)-N-(1-cyanocyclopropyl)-2-(4-(4-(1,1-dioxidothiomorpholino)phen-yl)-1-(4-(2-hydroxypropan-2-yl)phenyl)-1H-pyrazol-3-yl)cyclohexanecarboxamide], the IC50 was found to be 764 nM on human cathepsin F and 0.8 nM on human cathepsin K.

As for `N#CC1(NC(=O)[C@@H]2CCCC[C@H]2c2nn(-c3ccccc3F)cc2-c2ccc(N3CCS(=O)(=O)CC3)cc2)CC1` [Example 98, (1R,2R)-N-(1-cyanocyclopropyl)-2-(4-(4-(1,1-dioxidothiomorpholino)phen-yl)-1-(2-fluorophenyl)-1H-pyrazol-3-yl)cyclohexanecarboxamide], the IC50 worked out at 946 nM at human cathepsin F and 0.91 nM on human cathepsin K.

As for `N#CC1(NC(=O)[C@@H]2CCCC[C@H]2c2nn(-c3cccc(Cl)c3)cc2-c2ccc(N3CCS(=O)(=O)CC3)cc2)CC1` [Example 99, (1R,2R)-2-(1-(3-chlorophenyl)-4-(4-(1,1-dioxidothiomorpholino)phen-yl)-1H-pyrazol-3-yl)-N-(1-cyanocyclopropyl)cyclohex-anecarboxamide], the IC50 worked out at 379 nM on human cathepsin F and 0.48 nM on human cathepsin K.

As to `N#Cc1ccc(-n2cc(-c3ccc(N4CCS(=O)(=O)CC4)cc3)c([C@@H]3CCCC[C@H]3C(=O)NC3(C#N)CC3)n2)cc1` [Example 100, (1R,2R)-N-(1-cyanocyclopropyl)-2-(1-(4-cyanophenyl)-4-(4-(1,1-dioxidothiomorpholino)phen-yl)-1H-pyrazol-3-yl)cyclohexanecarboxamide], the IC50 on human cathepsin F is 212 nM; at human cathepsin K it was 0.87 nM.

`N#Cc1cccc(-n2cc(-c3ccc(N4CCS(=O)(=O)CC4)cc3)c([C@@H]3CCCC[C@H]3C(=O)NC3(C#N)CC3)n2)c1` [Example 101, (1R,2R)-N-(1-cyanocyclopropyl)-2-(1-(3-cyanophenyl)-4-(4-(1,1-dioxidothiomorpholino)phen-yl)-1H-pyrazol-3-yl)cyclohexanecarboxamide]: the IC50 at human cathepsin F came to 452 nM; at human cathepsin K, 0.99 nM.

`N#CC1(NC(=O)[C@@H]2CCCC[C@H]2c2nn(-c3ccccc3Cl)cc2-c2ccc(N3CCS(=O)(=O)CC3)cc2)CC1` [Example 102, (1R,2R)-2-(1-(2-chlorophenyl)-4-(4-(1,1-dioxidothiomorpholino)phen-yl)-1H-pyrazol-3-yl)-N-(1-cyanocyclopropyl)cyclohex-anecarboxamide]: the IC50 at human cathepsin F stood at 643 nM; at human cathepsin K, 2.9 nM.

For the compound `Cc1cc(C#N)ccc1-n1cc(-c2ccc(N3CCS(=O)(=O)CC3)cc2)c([C@@H]2CCCC[C@H]2C(=O)NC2(C#N)CC2)n1` [Example 103, (1R,2R)-2-(1-(4-cyano-2-methylphenyl)-4-(4-(1,1-dioxidothiomorpholino)phen-yl)-1H-pyrazol-3-yl)-N-(1-cyanocyclopropyl)cyclohex-anecarboxamide], the IC50 is 622 nM at human cathepsin F and 2.17 nM at human cathepsin K.

Take `N#Cc1ccc(-n2cc(-c3ccc(N4CCS(=O)(=O)CC4)cc3)c([C@@H]3CCCC[C@H]3C(=O)NC3(C#N)CC3)n2)c(Cl)c1` [Example 104, (1R,2R)-2-(1-(2-chloro-4-cyanophenyl)-4-(4-(1,1-dioxidothiomorpholino)phen-yl)-1H-pyrazol-3-yl)-N-(1-cyanocyclopropyl)cyclohex-anecarboxamide]: the results for the IC50 at human cathepsin F and at human cathepsin K were 411 nM and 2.02 nM, respectively.

The values are drawn from US9656990B2, “Cathepsin cysteine protease inhibitors” (Merck Sharp & Dohme Corp., priority 2014, dated 2017).
